These results are taken from publication PMC2745596 (Bioorganic & Medicinal Chemistry Letters, 2008).

The target of experiment [1] is SARS-CoV 3CLpro (Severe acute respiratory syndrome coronavirus, UniProt P0C6X7). The experiment is classed as biochemical.
Experiment [2] relates to SARS-CoV Urbani strain. The experiment is classed as cell-based.

Molecules are shown by their SMILES.

With `O=C(Oc1cncc(Cl)c1)c1cccc2[nH]ccc12` [Inhibitor 10], the “potency enhancement over 5 (enzyme IC50)” value in experiment [1] came out at 10 fold.

`O=C(On1nnc2ccccc21)c1ccc2[nH]ccc2c1` [Inhibitor 3]: the “antiviral activity (in words)” value in experiment [2] is given as “did not exhibit any antiviral activity”.
